From USRE41209E1, “Platinum complexes” (Genzyme Corporation, priority 1996, dated 2010)
Like-named read-outs stand apart in the source and are kept apart here.

Legend:
41MR = test: Inhibition of cell proliferation, human cancer cell lines in culture (41MR); assay type: cell-based
Procedure: (§1) The complexes of the invention were tested against human cancer cell lines grown in cell culture according to established testing procedures (described by Kelland et al, Cancer Research 53, 2581-2586, June 1993). […] The results are given in concentrations (μM) necessary to achieve a 50% decrease in cell proliferation, with resistance factors in brackets for the cisplatin-resistant cell lines.

41M = test: Inhibition of cell proliferation, human cancer cell lines in culture (41M); assay type: cell-based; conditions: read-out: concentration necessary to achieve a 50% decrease in cell proliferation
A2780R = test: Inhibition of cell proliferation, human cancer cell lines in culture (A2780R); assay type: cell-based
Procedure: as §1

CH1 = test: Inhibition of cell proliferation, human cancer cell lines in culture (CH1); assay type: cell-based
CH1R = test: Inhibition of cell proliferation, human cancer cell lines in culture (CH1R); assay type: cell-based
Procedure: as §1

HX62 = test: Inhibition of cell proliferation, human cancer cell lines in culture (HX62); assay type: cell-based
Procedure: as §1

A2780 = test: Inhibition of cell proliferation, human cancer cell lines in culture (A2780); assay type: cell-based
SKOV3 = test: Inhibition of cell proliferation, human cancer cell lines in culture (SKOV3); assay type: cell-based
Procedure: as §1

ADJ/PC6 = ADJ/PC6 tumour mass reduction in Balb C mice; assay type: in vivo
CH1 xenograft = CH1 xenograft antitumour activity; assay type: in vivo; conditions: for antitumour effect and tumour regrowth in the CH1 xenograft: derived from cell line sensitive to cisplatin
Excerpt: It has been reported by Tobe et al (Wadley Medical Bulletin 7, 1, 114-135) that steric effects of bulky substituents close to the platinum atom have a profound effect upon the rate of substitution reactions there. At that time no systematic study of the way in which variation of the substituent on the primary amine affects the rate and extend of bonding of the Pt complex to DNA had been undertaken.

[1] = mouse, in vivo, po
[2] = 41MR, bred to be resistant to cisplatin; read-out: concentration necessary to achieve a 50% decrease in cell proliferation
[3] = inherently cisplatin sensitive line
[4] = A2780R, bred to be resistant to cisplatin; read-out: concentration necessary to achieve a 50% decrease in cell proliferation
[5] = CH1; read-out: concentration necessary to achieve a 50% decrease in cell proliferation
[6] = CH1R, bred to be resistant to cisplatin; read-out: concentration necessary to achieve a 50% decrease in cell proliferation
[7] = HX62, inherently resistant to cisplatin; read-out: concentration necessary to achieve a 50% decrease in cell proliferation
[8] = HX62 IC50 divided by the IC50 for the 41M line
[9] = A2780; read-out: concentration necessary to achieve a 50% decrease in cell proliferation
[10] = SKOV3, inherently resistant to cisplatin; read-out: concentration necessary to achieve a 50% decrease in cell proliferation
[11] = SKOV3 IC50 divided by the IC50 for the 41M line
[12] = Homo sapiens, read-out: concentration necessary to achieve a 50% decrease in cell proliferation
[13] = Homo sapiens; read-out: concentration necessary to achieve a 50% decrease in cell proliferation

Row | Compound | resistance factor (41MR; 41MR versus 41M) | IC50 (41MR; [2]) [µM] | IC50 (41M; [3]) [µM] | resistance factor (A2780R; A2780R versus A2780) | IC50 (A2780R; [4]) [µM] | IC50 (CH1; [5]) [µM] | resistance factor (CH1R; CH1R versus CH1) | IC50 (CH1R; [6]) [µM] | IC50 (HX62; [7]) [µM] | resistance factor (HX62; [8]) | IC50 (A2780; [9]) [µM] | IC50 (SKOV3; [10]) [µM] | resistance factor (SKOV3; [11]) | also measured
1 | N.N.O=C([O-])C1(C(=O)[O-])CCC1.[Pt+2] [Carboplatin, reference compound] | (2.7) | 8.8 | 3.3 | (14) | 37.4 | 1.3 | (4.6) | 6 | 85 | (26) | 2.6 | 37.7 | (11) | 
2 | N.N.[Cl][Pt][Cl] [Cisplatin, [PtCl2 (NH3)2], reference compound] | (4.6) | 1.9 | 0.41 | (22) | 7.8 | 0.12 | (3.7) | 0.44 | 15.5 | (37.8) | 0.35 | 4.3 | (10.5) | ED90; dose required to reduce tumour mass by 90% (ADJ/PC6; ADJ/PC6, Daily × 5 (i.p.)): 0.2 mg/kg; ED90; dose required to reduce tumour mass by 90% (ADJ/PC6; ADJ/PC6, Single dose (i.p.)): 1.6 mg/kg; ED90; dose required to reduce tumour mass by 90% (ADJ/PC6; ADJ/PC6, Single dose (p.o.)): 24 mg/kg; antitumour effect and tumour regrowth in the CH1 xenograft (CH1 xenograft): significant activity at the maximum tolerated dose, however the tumour does grow back
3 | CC(C)c1ccccn1 [Example 5, 2-isopropylpyridine] | (0.9) |  |  | (3.6) |  |  | (1.7) |  |  | (8) |  |  | (3.3) | IC50 (41MR; [12]): 5.6 µM; IC50 (41M; Homo sapiens): 6.1 µM; IC50 (A2780R; [12]): 14 µM; IC50 (CH1; Homo sapiens, CH1, read-out: concentration necessary to achieve a 50% decrease in cell proliferation): 2.4 µM; IC50 (CH1R; [12]): 4.2 µM; IC50 (HX62; Homo sapiens, HX62, read-out: concentration necessary to achieve a 50% decrease in cell proliferation): 49 µM; IC50 (A2780; Homo sapiens, A2780, read-out: concentration necessary to achieve a 50% decrease in cell proliferation): 3.9 µM; IC50 (SKOV3; Homo sapiens, SK-OV-3, read-out: concentration necessary to achieve a 50% decrease in cell proliferation): 20 µM
4 | CCc1ccccn1 [Example 2, 2-ethylpyridine] | (1.7) |  |  | (2.5) |  |  | (2.6) |  |  | (10) |  |  | (2.9) | IC50 (41MR; [13]): 5.7 µM; IC50 (41M; Homo sapiens): 3.4 µM; IC50 (A2780R; [13]): 11 µM; IC50 (CH1; Homo sapiens, CH1; read-out: concentration necessary to achieve a 50% decrease in cell proliferation): 1.4 µM; IC50 (CH1R; [13]): 3.6 µM; IC50 (HX62; Homo sapiens, HX62; read-out: concentration necessary to achieve a 50% decrease in cell proliferation): 36 µM; IC50 (A2780; Homo sapiens, A2780; read-out: concentration necessary to achieve a 50% decrease in cell proliferation): 4.4 µM; IC50 (SKOV3; Homo sapiens, SK-OV-3; read-out: concentration necessary to achieve a 50% decrease in cell proliferation): 20 µM
5 | Cc1cccc[n+]1[Pt-2]([NH3+])([Cl])[Cl] [Example 1, (SP-4-3)-amminedichloro(2-methylpyridine) platinum(II)] | (1.2) | 5 | 4.1 | (3.4) | 4.4 | 1.9 | (1.9) | 3.7 | 40 | (9.8) | 1.28 | 17.5 | (4.3) | LD50; dose causing 50% lethality [1]: 560 mg/kg; histological evidence of organ toxicity (mice receiving a LD10 dose): No significant histological evidence of liver, kidney, spleen, gastrointestinal tract, brain or skin toxicity; levels of ALP, ALT, gut disaccharides maltose, sucrose and trehalose, urea and creatinine compared to control mice (treated mice (LD50 dose)): no significant differences; ED90; dose required to reduce tumour mass by 90% (ADJ/PC6; ADJ/PC6, Daily × 5 (i.p.)): 0.8 mg/kg; ED90; dose required to reduce tumour mass by 90% (ADJ/PC6; ADJ/PC6, Single dose (i.p.)): 3 mg/kg; ED90; dose required to reduce tumour mass by 90% (ADJ/PC6; ADJ/PC6, Single dose (p.o.)): 6.2 mg/kg; antitumour effect and tumour regrowth in the CH1 xenograft (CH1 xenograft): exhibits a curative effect, and the tumour does not grow back; potency in the CH1 xenograft compared with cisplatin (CH1 xenograft; greater dose is required than cisplatin): slightly less potency
6 | Cc1cc[n+]([Pt-2]([NH3+])([OH])([OH])([Cl])[Cl])c(C)c1 [Example 7, (OC-6-43)-amminedichlorodihydroxo(2,4-dimethylpyridine)platinum(IV)] | (2.2) | 17.5 | 8 | (2.1) | 30 | 3.1 | (2.5) | 8.9 | 72 | (9) | 14 | 47 | (5.9) | 
7 | Cc1ccnc(C)c1.N.[Cl][Pt][Cl] [Example 4, (SP-4-3)-amminedichloro(2,4-dimethylpyridine)platinum(II)] | (0.4) | 1.9 | 4.25 |  | 18 | 2.3 | (2.3) | 5.3 | 4.9 | (1) | 6.6 | 14 | (3) | 
